Measurements: the supplement of paper PMC10132981, “Formate overflow drives toxic folate trapping in MTHFD1 inhibited cancer cells” (Nature Metabolism, 2023)
Where “and” joins values, the source holds several entries; their conditions need not be identical. Equal values may be shown once.

Tests used:
[1] = system: SW620; assay: cell viability relative to vehicle (resazurin, 96 h); higher = more viable
Experimental: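 SW620 WT or MTHFD2-/- cells were treated for 96 h with a compound dilution series (log10 M) in RPMI with normal or dialysed FBS. Viability was read by resazurin and is given as % of vehicle.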

[2] = system: SW620; assay: cell viability relative to lowest-dose well (resazurin, 96 h); higher = more viable; details: RPMI + 10% FBS
How it was run: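 HCT116 (500 cells/well) or SW620 (1,000 cells/well) cells were seeded in 50 µl RPMI with 10% FBS plus a metabolite supplement in 384-well plates. Compounds were dispensed from 10 mM DMSO stocks as dilution series, and plates were incubated 96 h at 37 °C, 5% CO2. Viability was read as resazurin (10 µg ml^−1) conversion to resorufin after 5 h, by fluorescence at 595 nm. Values are percent of the lowest-dose well, with independent replicate cultures.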

CN(Cc1cnc2nc(N)nc(N)c2n1)c1ccc(C(=O)N[C@@H](CCC(=O)O)C(=O)O)cc1 [methotrexate]
Details	cell viability
[1], log10 compound concentration (M): -8.81697, supplement / serum: RPMI + Dialyzed FBS, base medium: RPMI-1640	86.4%
[1], log10 compound concentration (M): -8.81697, supplement / serum: RPMI + Normal FBS, base medium: RPMI-1640	97.4%
[1], log10 compound concentration (M): -8.81697, supplement / serum: Vehicle, base medium: RPMI + dialysed FBS	119%
[1], log10 compound concentration (M): -9.29409, supplement / serum: 50 μM Hypoxanthine + 50 μM Thymidine, base medium: RPMI + dialysed FBS	93.5%
[1], log10 compound concentration (M): -9.29409, supplement / serum: Hypoxanthine + AICAr 10μM, base medium: RPMI + dialysed FBS	118%
[1], log10 compound concentration (M): -9.29409, supplement / serum: Hypoxanthine + AICAr 30μM, base medium: RPMI + dialysed FBS	105%
[1], log10 compound concentration (M): -9.29409, supplement / serum: Hypoxanthine + AICAr 50μM, base medium: RPMI + dialysed FBS	113%
[1], log10 compound concentration (M): -9.29409, supplement / serum: Hypoxanthine + AICAr 100μM, base medium: RPMI + dialysed FBS	102%
[1], log10 compound concentration (M): -9.29409, supplement / serum: Hypoxanthine, base medium: RPMI + dialysed FBS	97.3%
[1], log10 compound concentration (M): -9.29409, supplement / serum: RPMI + Dialyzed FBS + 50μM Hypoxanthine, base medium: RPMI-1640	96.1%
[1], log10 compound concentration (M): -9.29409, supplement / serum: RPMI + Dialyzed FBS, base medium: RPMI-1640	98.9%
[1], log10 compound concentration (M): -9.29409, supplement / serum: RPMI + Normal FBS, base medium: RPMI-1640	99.1%
[1], log10 compound concentration (M): -9.29409, supplement / serum: Vehicle, base medium: RPMI + dialysed FBS	112%
[1], log10 compound concentration (M): -9.77121, supplement / serum: Hypoxanthine + AICAr 10μM, base medium: RPMI + dialysed FBS	112.06%
[1], log10 compound concentration (M): -9.77121, supplement / serum: Hypoxanthine + AICAr 30μM, base medium: RPMI + dialysed FBS	94.8%
[1], log10 compound concentration (M): -9.77121, supplement / serum: Hypoxanthine + AICAr 50μM, base medium: RPMI + dialysed FBS	120.1%
[1], log10 compound concentration (M): -9.77121, supplement / serum: Hypoxanthine + AICAr 100μM, base medium: RPMI + dialysed FBS	98.9%
[1], log10 compound concentration (M): -9.77121, supplement / serum: Hypoxanthine, base medium: RPMI + dialysed FBS	101%
[1], log10 compound concentration (M): -9.77121, supplement / serum: RPMI + Dialyzed FBS + 50μM Hypoxanthine, base medium: RPMI-1640	94.8%
[1], log10 compound concentration (M): -9.77121, supplement / serum: RPMI + Dialyzed FBS, base medium: RPMI-1640	96.3%
[1], log10 compound concentration (M): -9.77121, supplement / serum: RPMI + Normal FBS, base medium: RPMI-1640	88.1%
[1], log10 compound concentration (M): -9.77121, supplement / serum: Vehicle, base medium: RPMI + dialysed FBS	114%
[2], 0.001 µM, metabolite supplement: 1uM folinic acid	101%
[2], 0.001 µM, metabolite supplement: 50uM thymidine	95.8%
[2], 0.001 µM, metabolite supplement: 50uM thymidine + 1uM folinic acid	102%
[2], 0.001 µM, metabolite supplement: vehicle	96.5%
[2], 0.00278 µM, metabolite supplement: 1uM folinic acid	101%
[2], 0.00278 µM, metabolite supplement: 50uM thymidine	96.1%
[2], 0.00278 µM, metabolite supplement: 50uM thymidine + 1uM folinic acid	102%
[2], 0.00278 µM, metabolite supplement: vehicle	93.7%
[2], 0.00774 µM, metabolite supplement: 1uM folinic acid	100%
[2], 0.00774 µM, metabolite supplement: 50uM thymidine	73.1%
[2], 0.00774 µM, metabolite supplement: 50uM thymidine + 1uM folinic acid	101%
[2], 0.00774 µM, metabolite supplement: 50uM thymidine + 250uM folic acid	98.6%
[2], 0.00774 µM, metabolite supplement: 250uM folic acid	98.4%
[2], 0.00774 µM, metabolite supplement: vehicle	70.1%
[2], 0.0215 µM, metabolite supplement: 1uM folinic acid	100%
[2], 0.0215 µM, metabolite supplement: 50uM thymidine	55%
[2], 0.0215 µM, metabolite supplement: 50uM thymidine + 1uM folinic acid	103%
[2], 0.0215 µM, metabolite supplement: 50uM thymidine + 250uM folic acid	94.3%
[2], 0.0215 µM, metabolite supplement: 250uM folic acid	89.1%
[2], 0.0215 µM, metabolite supplement: vehicle	39.2%
[2], 0.0599 µM, metabolite supplement: 1uM folinic acid	96.1%
[2], 0.0599 µM, metabolite supplement: 50uM thymidine	30.1%
[2], 0.0599 µM, metabolite supplement: 50uM thymidine + 1uM folinic acid	102%
[2], 0.0599 µM, metabolite supplement: 50uM thymidine + 250uM folic acid	79.3%
[2], 0.0599 µM, metabolite supplement: 250uM folic acid	78%
[2], 0.0599 µM, metabolite supplement: vehicle	29.9% and 27.9%
[2], 0.167 µM, metabolite supplement: 1uM folinic acid	85.3%
[2], 0.167 µM, metabolite supplement: 50uM thymidine	26.8% and 27.8%
[2], 0.167 µM, metabolite supplement: 50uM thymidine + 1uM folinic acid	85.4%
[2], 0.167 µM, metabolite supplement: 50uM thymidine + 250uM folic acid	45.2%
[2], 0.167 µM, metabolite supplement: 250uM folic acid	47.8%
[2], 0.167 µM, metabolite supplement: vehicle	32% and 27.2%
[2], 0.464 µM, metabolite supplement: 1uM folinic acid	59.2%
[2], 0.464 µM, metabolite supplement: 50uM thymidine	27.5%
[2], 0.464 µM, metabolite supplement: 50uM thymidine + 1uM folinic acid	68.2%
[2], 0.464 µM, metabolite supplement: 50uM thymidine + 250uM folic acid	37.4%
[2], 0.464 µM, metabolite supplement: 250uM folic acid	29.7%
[2], 0.464 µM, metabolite supplement: vehicle	27.4%
[2], 1.29 µM, metabolite supplement: 1uM folinic acid	51.8%
[2], 1.29 µM, metabolite supplement: 50uM thymidine	26%
[2], 1.29 µM, metabolite supplement: 50uM thymidine + 1uM folinic acid	49.2%
[2], 1.29 µM, metabolite supplement: 50uM thymidine + 250uM folic acid	37.2%
[2], 1.29 µM, metabolite supplement: 250uM folic acid	27.5%
[2], 1.29 µM, metabolite supplement: vehicle	26.9%
[2], 3.59 µM, metabolite supplement: 1uM folinic acid	48.7%
[2], 3.59 µM, metabolite supplement: 50uM thymidine	26.7%
[2], 3.59 µM, metabolite supplement: 50uM thymidine + 1uM folinic acid	43.4%
[2], 3.59 µM, metabolite supplement: 50uM thymidine + 250uM folic acid	35.5%
[2], 3.59 µM, metabolite supplement: 250uM folic acid	27.3%
[2], 3.59 µM, metabolite supplement: vehicle	25.7%
[2], 10 µM, metabolite supplement: 1uM folinic acid	31.6%
[2], 10 µM, metabolite supplement: 50uM thymidine	26.6%
[2], 10 µM, metabolite supplement: 50uM thymidine + 1uM folinic acid	39.9%
[2], 10 µM, metabolite supplement: 50uM thymidine + 250uM folic acid	35.5%
[2], 10 µM, metabolite supplement: 250uM folic acid	27.3%
[2], 10 µM, metabolite supplement: vehicle	26%
